The source made the active and inactive calls. No cut-off for these calls is given here.
How the values were obtained:
[1] = (§1) Antiproliferative activity against mouse KC-0116 cells by MTT assay; assay type: functional, cell-based
[2] = test system: HCC827; experiment: Antiproliferative activity against human HCC827 cells by MTT assay; assay type: functional, cell-based
[3] = Antiproliferative activity against mouse KC-0122 cells by MTT assay; assay type: functional, cell-based
[4] = test system: A-431; experiment: Antiproliferative activity against human A-431 cells by MTT assay; assay type: functional, cell-based
[5] = test system: NCI-H1975; experiment: Antiproliferative activity against human NCI-H1975 cells by MTT assay; assay type: functional, cell-based
[6] = Antiproliferative activity against mouse Ba/F3 EGFR-T790M/C797S/L858R cells; assay type: functional, cell-based
[7] = Antiproliferative activity against mouse Ba/F3 EGFR-Del19/T790M/C797S cells; assay type: functional, cell-based
[8] = Induction of apoptosis in mouse KC-0116 cells assessed as late apoptotic cells at 100 nM measured after 36 hrs by Annexin V/propidium iodide staining based flow cytometry (reference value: 2.47%); assay type: functional
[9] = test system: KC-0116; experiment: Cell cycle arrest in mouse KC-0116 cells assessed as increase in cell population at G2/M-phase at 0.1 to 0.3 uM measured after 48 hrs by flow cytometry; assay type: functional, cell-based; details: dose 0.1-0.3 µM
[10] = Induction of apoptosis in mouse KC-0116 cells assessed as viable cells at 100 nM measured after 36 hrs by Annexin V/propidium iodide staining based flow cytometry (reference value: 90.66%); assay type: functional; details: read-out: Activity
[11] = test system: KC-0116; experiment: Induction of apoptosis in mouse KC-0116 cells measured after 36 hrs by Annexin V/propidium iodide staining based flow cytometry; assay type: functional, cell-based; details: dose 0.1-3 µM
[12] = Induction of apoptosis in mouse KC-0116 cells assessed as early apoptotic cells at 300 nM measured after 36 hrs by Annexin V/propidium iodide staining based flow cytometry (reference value: 6.85%); assay type: functional
[13] = test system: KC-0116; experiment: Inhibition of EGFR-del19/T790M/C797S in mouse KC-0116 cells assessed as reduction in EGFR phosphorylation measured after 8 hrs by Western blot analysis; assay type: cell-based; details: dose 0.3-3 µM
[14] = Induction of apoptosis in mouse KC-0116 cells assessed as necrotic cells at 100 nM measured after 36 hrs by Annexin V/propidium iodide staining based flow cytometry (reference value: 0.03%); assay type: functional
[15] = test system: KC-0116; experiment: as §1; assay type: functional, cell-based
[16] = Induction of apoptosis in mouse KC-0116 cells assessed as viable cells at 300 nM measured after 36 hrs by Annexin V/propidium iodide staining based flow cytometry (reference value: 90.66%); assay type: functional; details: read-out: Activity
[17] = Induction of apoptosis in mouse KC-0116 cells assessed as late apoptotic cells at 300 nM measured after 36 hrs by Annexin V/propidium iodide staining based flow cytometry (reference value: 2.47%); assay type: functional
[18] = Induction of apoptosis in mouse KC-0116 cells assessed as early apoptotic cells at 100 nM measured after 36 hrs by Annexin V/propidium iodide staining based flow cytometry (reference value: 6.85%); assay type: functional
[19] = test system: KC-0116; experiment: Inhibition of EGFR-del19/T790M/C797S in mouse KC-0116 cells assessed as reduction in AKT phosphorylation measured after 8 hrs by Western blot analysis; assay type: cell-based; details: dose 0.3-3 µM
[20] = Induction of apoptosis in mouse KC-0116 cells assessed as necrotic cells at 300 nM measured after 36 hrs by Annexin V/propidium iodide staining based flow cytometry (reference value: 0.03%); assay type: functional

## CN1CCN(c2ccc(Nc3ncc(Br)c(NC4CCOCC4)n3)cc2)CC1
[1]
  IC50: 710 nM

## CN(C)C1CCN(c2ccc(Nc3ncc(Cl)c(N[C@H]4CCN(C(=O)CO)C4)n3)cc2)CC1
[1]
  IC50: > 3300 nM

## CN1CCN(c2ccc(Nc3ncc(C(F)(F)F)c(N[C@H]4CC[C@H](O)CC4)n3)cc2)CC1
[1]
  IC50: > 3300 nM

## CN1CCN(c2ccc(Nc3ncc(Br)c(NC4CCN(S(=O)(=O)C5CC5)CC4)n3)cc2)CC1
[1]
  IC50: 1100 nM

## CN1CCN(c2ccc(Nc3ncc4c5ccccc5n(-c5cccc(NS(C)(=O)=O)c5)c4n3)cc2)CC1
[1]
  IC50: > 3300 nM

## CN1CCN(c2ccc(Nc3ncc(Br)c(N[C@H]4CCCN(S(=O)(=O)C5CC5)C4)n3)cc2)CC1
[1]
  IC50: 2000 nM

## CN(C)C1CCN(c2ccc(Nc3ncc(Cl)c(NC4CCN(C(=O)CO)CC4)n3)cc2)CC1
[1]
  IC50: 2460 nM

## CN1CCN(c2ccc(Nc3ncc(Br)c(NC4CCN(S(C)(=O)=O)CC4)n3)cc2)CC1
[1]
  IC50: 940 nM

## CN1CCN(c2ccc(Nc3ncc4c5ccccc5n([C@H]5CCN(S(=O)(=O)C6CC6)C5)c4n3)cc2)CC1
[1]
  IC50: > 3300 nM

## CN1CCN(c2ccc(Nc3ncc4c5ccccc5n(-c5cccc(NC(=O)CO)c5)c4n3)cc2)CC1
[1]
  IC50: > 3300 nM

## CN1CCN(c2ccc(Nc3ncc4c5ccccc5n(-c5ccc(NC(=O)CN)cc5)c4n3)cc2)CC1
[1]
  IC50: > 3300 nM

## CN1CCN(c2ccc(Nc3ncc(Br)c(N[C@@H]4CCN(S(=O)(=O)C5CC5)C4)n3)cc2)CC1
[1]
  IC50: 3010 nM

## CC(=O)N1CCC(Nc2nc(Nc3ccc(N4CCN(C)CC4)cc3)ncc2Br)CC1
[1]
  IC50: 950 nM

## CN1CCN(c2ccc(Nc3ncc(Br)c(N[C@H]4CC[C@H](O)CC4)n3)cc2)CC1
[2]
  IC50: 650 nM
[1]
  IC50: 240 nM
[3]
  IC50: 250 nM
[4]
  IC50: > 3300 nM
[5]
  IC50: 580 nM

## COc1cc(N2CCC(N3CCN(C)CC3)CC2)c(C)cc1Nc1ncc(Br)c(Nc2ccc3nccnc3c2P(C)(C)=O)n1
[6]
  IC50: 0.21 nM
[7]
  IC50: 0.16 nM

## CN1CCN(c2ccc(Nc3ncc(Br)c(NCc4ccccn4)n3)cc2)CC1
[1]
  IC50: 1310 nM

## CN1CCN(c2ccc(Nc3ncc(Br)c(N[C@H]4CCN(S(=O)(=O)C5CC5)C4)n3)cc2)CC1
[1]
  IC50: 1130 nM

## CN(C)C1CCN(c2ccc(Nc3ncc(Br)c(N[C@H]4CC[C@H](O)CC4)n3)cc2)CC1
[1]
  IC50: 480 nM

## CN1CCN(c2ccc(Nc3ncc(Br)c(Nc4cccc(NC(=O)CN)c4)n3)cc2)CC1
[1]
  IC50: 440 nM

## CN1CCN(c2ccc(Nc3ncc4c5ccc(OC(F)(F)F)cc5n(-c5cccc(NC(=O)CN)c5)c4n3)cc2)CC1
[1]
  IC50: > 3300 nM

## CN(C)C1CCN(c2ccc(Nc3ncc(Cl)c(N[C@@H]4CCN(S(=O)(=O)C5CC5)C4)n3)cc2)CC1
[1]
  IC50: 460 nM

## CN1CCN(c2ccc(Nc3ncc(Cl)c(N[C@H]4CC[C@H](O)CC4)n3)cc2)CC1
[1]
  IC50: 310 nM

## CN(C)C1CCN(c2ccc(Nc3ncc(Cl)c(N[C@H]4CCCN(C(=O)CO)C4)n3)cc2)CC1
[1]
  IC50: 1660 nM

## CN(C)C1CCN(c2ccc(Nc3ncc(Cl)c(N[C@@H]4CCCN(C(=O)CO)C4)n3)cc2)CC1
[1]
  IC50: > 3300 nM

## CN1CCN(c2ccc(Nc3ncc4c5ccccc5n(-c5cccc(NCCO)c5)c4n3)cc2)CC1
[1]
  IC50: > 3300 nM

## CN1CCN(c2ccc(Nc3ncc(Br)c(N[C@@H]4CCCN(S(=O)(=O)C5CC5)C4)n3)cc2)CC1
[8]
  Activity: 4.61%
[2]
  IC50: > 3300 nM
[9]
  Activity: Active
[10]
  viability at 0.1 µM: 83.9%
[11]
  Activity: Dose-Dependent Effect
[12]
  Activity: 14.6%
[13]
  inhibition: Dose-Dependent Effect
[14]
  Activity: 0.01%
[15]
  Activity: Dose-Dependent Effect
[1]
  IC50: 200 nM
[16]
  viability at 0.3 µM: 80.2%
[3]
  IC50: 210 nM
[17]
  Activity: 5.19%
[18]
  Activity: 11.51%
[19]
  inhibition: Dose-Dependent Effect
[4]
  IC50: 620 nM
[20]
  Activity: 0%
[5]
  IC50: > 3300 nM

## CN1CCN(c2ccc(Nc3ncc(-c4ccccc4)c(N[C@H]4CCN(S(=O)(=O)C5CC5)C4)n3)cc2)CC1
[1]
  IC50: > 3300 nM

## C=CC(=O)Nc1cc(Nc2nccc(-c3cn(C)c4ccccc34)n2)c(OC)cc1N(C)CCN(C)C [OSIMERTINIB]
[2]
  IC50: 1 nM
[1]
  IC50: 1430 nM
[3]
  IC50: 1530 nM
[5]
  IC50: […]

## CN(C)C1CCN(c2ccc(Nc3ncc(Cl)c(N[C@H]4CCN(S(=O)(=O)C5CC5)C4)n3)cc2)CC1
[1]
  IC50: > 3300 nM

## CN1CCN(c2ccc(Nc3ncc(-c4ccccc4)c(Nc4cccc(NC(=O)CN)c4)n3)cc2)CC1
[1]
  IC50: > 3300 nM

## COc1cc(N2CCC(N3CCN(C)CC3)CC2)ccc1Nc1ncc(Cl)c(Nc2ccccc2P(C)(C)=O)n1 [BRIGATINIB]
[2]
  IC50: 13 nM
[6]
  IC50: 5.57 nM
[12]
  Activity: 7.2%
[1]
  IC50: 360 nM
[16]
  viability at 0.3 µM: 90.8%
[3]
  IC50: 440 nM
[17]
  Activity: 1.94%
[4]
  IC50: 500 nM
[20]
  Activity: 0.02%
[5]
  IC50: 830 nM
